Results published in US12077503B2, “Substituted cyclic amides and their use as herbicides” (FMC CORPORATION, priority 2015, dated 2024).

Columns and labels:
Type in all cases: in vivo
Kochia (Kochia scoparia) [1] = assay: Test A preemergence; details: Bassia scoparia, pre-emergence, 240 h, Preemergence; for pest or weed control at 31 g/ha: 31 g ai/ha, 0 to 100 scale where 0 is no effect and 100 is complete control, read-out: Kochia plant response rating; for pest or weed control at 125 g/ha: 125 g ai/ha, visual injury rating after approximately 10 d, read-out: Kochia plant response rating (0 to 100 scale, 0 is no effect, 100 is complete control)
Summary of the method: (§1)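 Ratings of 0 (no effect) to 100 (complete control) come from visual comparison with untreated controls roughly 10 d after treatment. Test chemicals, formulated in a non-phytotoxic solvent mixture with surfactant, were applied either as a preemergence directed soil spray on seeded soil or postemergence to one- to two-leaf plants 2 to 10 cm tall.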

[2] = system: barnyardgrass (Echinochloa crus-galli); assay: Test A preemergence; details: Echinochloa crus-galli, pre-emergence, 240 h, Preemergence; for pest or weed control at 125 g/ha: 125 g ai/ha, visual injury rating after approximately 10 d, read-out: Barnyardgrass plant response rating (0 to 100 scale, 0 is no effect, 100 is complete control); for pest or weed control at 31 g/ha: 31 g ai/ha, 0 to 100 scale (0 no effect, 100 complete control), read-out: Plant response rating, Barnyardgrass
Summary of the method: as §1

[3] = system: giant foxtail (Setaria faberii); assay: Test A preemergence; details: Setaria faberi, pre-emergence, 240 h, Preemergence; for pest or weed control at 125 g/ha: 125 g ai/ha, visual injury rating after approximately 10 d, read-out: Foxtail, Giant plant response rating (0 to 100 scale, 0 is no effect, 100 is complete control); for pest or weed control at 31 g/ha: 31 g ai/ha, 0 to 100 scale (0 no effect, 100 complete control), read-out: Plant response rating, Foxtail, Giant
Summary of the method: as §1

[4] = system: pigweed (Amaranthus retroflexus); assay: Test A preemergence; details: Amaranthus retroflexus, pre-emergence, 240 h, Preemergence; for pest or weed control at 31 g/ha: 31 g ai/ha, 0 to 100 scale where 0 is no effect and 100 is complete control, read-out: Pigweed plant response rating; for pest or weed control at 125 g/ha: 125 g ai/ha, visual injury rating after approximately 10 d, read-out: Pigweed plant response rating (0 to 100 scale, 0 is no effect, 100 is complete control)
[5] = system: ragweed (common ragweed, Ambrosia elatior); assay: Test A preemergence; details: Ambrosia artemisiifolia, pre-emergence, 240 h, Preemergence; for pest or weed control at 31 g/ha: 31 g ai/ha, 0 to 100 scale where 0 is no effect and 100 is complete control, read-out: Ragweed plant response rating; for pest or weed control at 125 g/ha: 125 g ai/ha, visual injury rating after approximately 10 d, read-out: Ragweed plant response rating (0 to 100 scale, 0 is no effect, 100 is complete control)
Summary of the method: as §1

[6] = system: ryegrass, Italian (Italian ryegrass, Lolium multiflorum); assay: Test A preemergence; details: Lolium multiflorum, pre-emergence, 240 h, Preemergence; for pest or weed control at 31 g/ha: 31 g ai/ha, 0 to 100 scale where 0 is no effect and 100 is complete control, read-out: Ryegrass, Italian plant response rating; for pest or weed control at 125 g/ha: 125 g ai/ha, visual injury rating after approximately 10 d, read-out: Ryegrass, Italian plant response rating (0 to 100 scale, 0 is no effect, 100 is complete control)
Summary of the method: as §1

[7] = system: Galium (catchweed bedstraw, Galium aparine); assay: Test A postemergence; details: Galium, post-emergence, 240 h; for pest or weed control at 125 g/ha: 125 g ai/ha, postemergence, visual injury on 0 to 100 scale (0 no effect, 100 complete control), approx. 10 d, read-out: Galium plant response rating; for pest or weed control at 31 g/ha: Postemergence, 31 g ai/ha, visual injury after approx. 10 d, 0 to 100 scale, 0 no effect, 100 complete control, read-out: Plant response rating, Galium
Summary of the method: as §1

Kochia (Kochia scoparia) [8] = assay: Test A postemergence; details: Bassia scoparia, post-emergence, 240 h; for pest or weed control at 125 g/ha: 125 g ai/ha, postemergence, visual injury on 0 to 100 scale (0 no effect, 100 complete control), approx. 10 d, read-out: Kochia plant response rating; for pest or weed control at 31 g/ha: Postemergence, 31 g ai/ha, visual injury after approx. 10 d, 0 to 100 scale, 0 no effect, 100 complete control, read-out: Plant response rating, Kochia
Summary of the method: as §1

[9] = system: barnyardgrass (Echinochloa crus-galli); assay: Test A postemergence; details: Echinochloa crus-galli, post-emergence, 240 h; for pest or weed control at 125 g/ha: 125 g ai/ha, postemergence, visual injury on 0 to 100 scale (0 no effect, 100 complete control), approx. 10 d, read-out: Barnyardgrass plant response rating; for pest or weed control at 31 g/ha: Postemergence, 31 g ai/ha, visual injury after approx. 10 d, 0 to 100 scale, 0 no effect, 100 complete control, read-out: Plant response rating, Barnyardgrass
Summary of the method: as §1

[10] = system: blackgrass (Alopecurus myosuroides); assay: Test A postemergence; details: Alopecurus myosuroides, post-emergence, 240 h; for pest or weed control at 125 g/ha: 125 g ai/ha, postemergence, visual injury on 0 to 100 scale (0 no effect, 100 complete control), approx. 10 d, read-out: Blackgrass plant response rating; for pest or weed control at 31 g/ha: Postemergence, 31 g ai/ha, visual injury after approx. 10 d, 0 to 100 scale, 0 no effect, 100 complete control, read-out: Plant response rating, Blackgrass
Summary of the method: as §1

corn (Zea mays) = assay: Test A postemergence; details: Zea mays, post-emergence, 240 h; for plant injury at 125 g/ha: 125 g ai/ha, postemergence, visual injury on 0 to 100 scale (0 no effect, 100 complete control), approx. 10 d, read-out: Corn plant response rating; for Corn plant response rating (crop injury, 0 = no effect, 100 = complete kill) at 31 g/ha: Postemergence, 31 g ai/ha, visual injury after approx. 10 d, 0 to 100 scale, 100 complete control
Summary of the method: as §1

[11] = system: giant foxtail (Setaria faberii); assay: Test A postemergence; details: Setaria faberi, post-emergence, 240 h; for pest or weed control at 125 g/ha: 125 g ai/ha, postemergence, visual injury on 0 to 100 scale (0 no effect, 100 complete control), approx. 10 d, read-out: Foxtail, Giant plant response rating; for pest or weed control at 31 g/ha: Postemergence, 31 g ai/ha, visual injury after approx. 10 d, 0 to 100 scale, 0 no effect, 100 complete control, read-out: Plant response rating, Foxtail, Giant
Summary of the method: as §1

[12] = system: pigweed (Amaranthus retroflexus); assay: Test A postemergence; details: Amaranthus retroflexus, post-emergence, 240 h; for pest or weed control at 125 g/ha: 125 g ai/ha, postemergence, visual injury on 0 to 100 scale (0 no effect, 100 complete control), approx. 10 d, read-out: Pigweed plant response rating; for pest or weed control at 31 g/ha: Postemergence, 31 g ai/ha, visual injury after approx. 10 d, 0 to 100 scale, 0 no effect, 100 complete control, read-out: Plant response rating, Pigweed
Summary of the method: as §1

[13] = system: ragweed (common ragweed, Ambrosia elatior); assay: Test A postemergence; details: Ambrosia artemisiifolia, post-emergence, 240 h; for pest or weed control at 125 g/ha: 125 g ai/ha, postemergence, visual injury on 0 to 100 scale (0 no effect, 100 complete control), approx. 10 d, read-out: Ragweed plant response rating; for pest or weed control at 31 g/ha: Postemergence, 31 g ai/ha, visual injury after approx. 10 d, 0 to 100 scale, 0 no effect, 100 complete control, read-out: Plant response rating, Ragweed
Summary of the method: as §1

[14] = system: ryegrass, Italian (Italian ryegrass, Lolium multiflorum); assay: Test A postemergence; details: Lolium multiflorum, post-emergence, 240 h; for pest or weed control at 125 g/ha: 125 g ai/ha, postemergence, visual injury on 0 to 100 scale (0 no effect, 100 complete control), approx. 10 d, read-out: Ryegrass, Italian plant response rating; for pest or weed control at 31 g/ha: Postemergence, 31 g ai/ha, visual injury after approx. 10 d, 0 to 100 scale, 0 no effect, 100 complete control, read-out: Plant response rating, Ryegrass, Italian
Summary of the method: as §1

[15] = system: wheat (Triticum aestivum); assay: Test A postemergence; details: Triticum aestivum, post-emergence, 240 h; for plant injury at 125 g/ha: 125 g ai/ha, postemergence, visual injury on 0 to 100 scale (0 no effect, 100 complete control), approx. 10 d, read-out: Wheat plant response rating; for plant injury at 31 g/ha: Postemergence, 31 g ai/ha, visual injury after approx. 10 d, 0 to 100 scale, 0 no effect, 100 complete control, read-out: Plant response rating, Wheat
Summary of the method: as §1

[16] = system: barnyardgrass (Echinochloa crus-galli); assay: Test B flooded paddy test; details: Echinochloa crus-galli, 250 g ai/ha, Flood; 0 to 100 scale where 0 is no effect and 100 is complete control; read-out: Barnyardgrass plant response rating
Summary of the method: (§2)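 Visual ratings (0 none to 100 complete control) are relative to untreated plants, taken 13–15 d after treatment in a greenhouse. Test material went straight into floodwater standing 3 cm above the soil, kept constant, on plants at the 2-leaf stage.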

[17] = system: ducksalad (Heteranthera limosa); assay: Test B flooded paddy test; details: Heteranthera limosa, 250 g ai/ha, Flood; 0 to 100 scale where 0 is no effect and 100 is complete control; read-out: Ducksalad plant response rating
Summary of the method: as §2

rice (Oryra sativa) = assay: Test B flooded paddy test; details: Oryza sativa, 250 g ai/ha, Flood; 0 to 100 scale where 0 is no effect and 100 is complete control; read-out: Rice plant response rating
Summary of the method: as §2

[18] = system: sedge, umbrella (small-flower umbrella sedge, Cyperus difformis); assay: Test B flooded paddy test; details: Cyperus difformis, 250 g ai/ha, Flood; 0 to 100 scale where 0 is no effect and 100 is complete control; read-out: Sedge, Umbrella plant response rating
Summary of the method: as §2

SMILES	pest or weed control at 31 g/ha (Kochia (Kochia scoparia) [1])	pest or weed control at 125 g/ha (Kochia (Kochia scoparia) [1])	pest or weed control at 125 g/ha [2]	pest or weed control at 31 g/ha [2]	pest or weed control at 125 g/ha [3]	pest or weed control at 31 g/ha [3]	pest or weed control at 31 g/ha [4]	pest or weed control at 125 g/ha [4]	pest or weed control at 31 g/ha [5]	pest or weed control at 125 g/ha [5]	pest or weed control at 31 g/ha [6]	pest or weed control at 125 g/ha [6]	pest or weed control at 125 g/ha [7]	pest or weed control at 31 g/ha [7]	pest or weed control at 125 g/ha (Kochia (Kochia scoparia) [8])	pest or weed control at 31 g/ha (Kochia (Kochia scoparia) [8])	pest or weed control at 125 g/ha [9]	pest or weed control at 31 g/ha [9]	pest or weed control at 125 g/ha [10]	pest or weed control at 31 g/ha [10]	further results
CSc1ccccc1NC(=O)[C@H]1C(=O)NC[C@@H]1c1ccc(C(F)(F)F)cn1 [Compound 1050]	0%	0%	0%	0%	0%	0%	0%	0%	0%	0%	0%	0%	0%	0%	0%	0%	0%	0%	0%	0%	plant injury at 125 g/ha (corn (Zea mays)): 0%; Corn plant response rating (crop injury, 0 = no effect, 100 = complete kill) at 31 g/ha (corn (Zea mays)): 0%; pest or weed control at 125 g/ha [11]: 0%; pest or weed control at 31 g/ha [11]: 0%; pest or weed control at 125 g/ha [12]: 0%; pest or weed control at 31 g/ha [12]: 0%; pest or weed control at 125 g/ha [13]: 0%; pest or weed control at 31 g/ha [13]: 0%; pest or weed control at 125 g/ha [14]: 0%; pest or weed control at 31 g/ha [14]: 0%; plant injury at 125 g/ha [15]: 0%; plant injury at 31 g/ha [15]: 0%; pest or weed control at 250 g/ha [16]: 0%; pest or weed control at 250 g/ha [17]: 85%; pest or weed control at 250 g/ha (rice (Oryra sativa)): 0%; pest or weed control at 250 g/ha [18]: 0%
CN1C[C@H](c2ccc(C(F)(F)F)cn2)[C@@H](C(=O)Nc2cccc(F)c2F)C1=O [Compound 1052]	20%	70%	90%	30%	90%	80%	40%	80%	0%	20%	0%	30%	70%	40%	40%	0%	80%	30%	20%	0%	plant injury at 125 g/ha (corn (Zea mays)): 0%; Corn plant response rating (crop injury, 0 = no effect, 100 = complete kill) at 31 g/ha (corn (Zea mays)): 0%; pest or weed control at 125 g/ha [11]: 70%; pest or weed control at 31 g/ha [11]: 30%; pest or weed control at 125 g/ha [12]: 30%; pest or weed control at 31 g/ha [12]: 0%; pest or weed control at 125 g/ha [13]: 30%; pest or weed control at 31 g/ha [13]: 0%; pest or weed control at 125 g/ha [14]: 20%; pest or weed control at 31 g/ha [14]: 0%; plant injury at 125 g/ha [15]: 0%; plant injury at 31 g/ha [15]: 0%; pest or weed control at 250 g/ha [16]: 85%; pest or weed control at 250 g/ha [17]: 100%; pest or weed control at 250 g/ha (rice (Oryra sativa)): 0%; pest or weed control at 250 g/ha [18]: 0%
